Assay results from publication PMC7582776 (Molecules, 2020).

Assays:
[1] = biological target: T1, CYP2C8 (Homo sapiens, UniProt P10632); experiment: LC-MS/MS, amodiaquine N-de-ethylation (substrate cocktail); type: biochemical
T1 construct: native enzyme in ultrapooled human liver microsomes
T1 sequence (P10632 1-490): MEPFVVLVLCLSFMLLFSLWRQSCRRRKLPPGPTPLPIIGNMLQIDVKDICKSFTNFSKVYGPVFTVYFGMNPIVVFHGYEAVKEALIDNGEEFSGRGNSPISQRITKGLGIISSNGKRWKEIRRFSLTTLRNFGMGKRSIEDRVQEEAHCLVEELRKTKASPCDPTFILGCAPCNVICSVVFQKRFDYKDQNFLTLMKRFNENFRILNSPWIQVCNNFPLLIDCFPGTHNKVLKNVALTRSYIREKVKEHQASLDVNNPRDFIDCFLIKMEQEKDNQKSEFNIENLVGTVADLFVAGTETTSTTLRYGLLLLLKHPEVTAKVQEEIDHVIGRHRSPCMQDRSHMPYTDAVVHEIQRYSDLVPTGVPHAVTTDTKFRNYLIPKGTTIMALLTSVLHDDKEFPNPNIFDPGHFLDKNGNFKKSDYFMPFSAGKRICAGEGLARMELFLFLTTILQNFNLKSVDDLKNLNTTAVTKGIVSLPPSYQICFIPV
Source text: LC-MS/MS, amodiaquine N-de-ethylation (substrate cocktail) on CYP2C8

[2] = biological target: T2, OATP1B1 (Homo sapiens, UniProt Q9Y6L6); experiment: [3H]estrone-3-sulfate uptake in HEK293-OATP1B1 cells; type: cell-based
T2 construct: gene SLCO1B1; transiently overexpressed in HEK293 cells (Corning)
T2 sequence (Q9Y6L6 1-691): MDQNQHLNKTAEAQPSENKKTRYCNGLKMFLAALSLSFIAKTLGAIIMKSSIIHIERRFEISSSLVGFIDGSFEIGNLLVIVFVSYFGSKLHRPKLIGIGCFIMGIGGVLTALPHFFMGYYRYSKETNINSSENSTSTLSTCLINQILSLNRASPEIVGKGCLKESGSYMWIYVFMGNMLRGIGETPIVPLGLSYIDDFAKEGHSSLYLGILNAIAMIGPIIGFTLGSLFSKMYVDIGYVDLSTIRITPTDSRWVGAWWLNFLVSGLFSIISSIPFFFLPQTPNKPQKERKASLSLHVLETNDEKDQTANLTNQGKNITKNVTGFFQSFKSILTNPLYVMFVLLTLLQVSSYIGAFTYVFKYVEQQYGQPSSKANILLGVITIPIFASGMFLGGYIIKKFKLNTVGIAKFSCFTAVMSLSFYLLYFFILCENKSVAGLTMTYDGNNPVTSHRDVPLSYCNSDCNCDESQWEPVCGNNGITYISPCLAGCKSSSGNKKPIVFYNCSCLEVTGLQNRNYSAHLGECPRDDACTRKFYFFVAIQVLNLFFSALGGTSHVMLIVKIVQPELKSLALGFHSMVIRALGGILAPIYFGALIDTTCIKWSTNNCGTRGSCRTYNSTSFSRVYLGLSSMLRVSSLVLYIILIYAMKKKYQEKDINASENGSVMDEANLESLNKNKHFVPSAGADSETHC

[3] = biological target: T3, CYP2D6 (Homo sapiens, UniProt P10635); experiment: LC-MS/MS, bufuralol (substrate cocktail); type: biochemical
T3 construct: native enzyme in ultrapooled human liver microsomes
T3 sequence (P10635 whole entry): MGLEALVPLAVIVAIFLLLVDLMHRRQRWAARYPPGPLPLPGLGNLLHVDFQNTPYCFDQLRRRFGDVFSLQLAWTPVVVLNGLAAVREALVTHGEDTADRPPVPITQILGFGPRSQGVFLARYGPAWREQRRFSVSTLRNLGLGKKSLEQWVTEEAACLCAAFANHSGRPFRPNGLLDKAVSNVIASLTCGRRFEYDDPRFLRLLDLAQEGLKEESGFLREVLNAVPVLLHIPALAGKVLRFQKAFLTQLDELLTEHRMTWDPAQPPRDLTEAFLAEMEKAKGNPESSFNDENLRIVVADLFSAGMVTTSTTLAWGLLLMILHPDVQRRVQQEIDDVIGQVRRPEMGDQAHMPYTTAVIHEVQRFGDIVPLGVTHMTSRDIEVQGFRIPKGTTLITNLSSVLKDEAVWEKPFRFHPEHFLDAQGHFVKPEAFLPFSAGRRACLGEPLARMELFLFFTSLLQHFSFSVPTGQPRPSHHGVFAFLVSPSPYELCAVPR

[4] = biological target: T2, OATP1B1; experiment: [3H]estrone-3-sulfate uptake in HEK293-OATP1B1 cells, Lineweaver-Burk; type: cell-based
Source text: [3H]estrone-3-sulfate uptake in HEK293-OATP1B1 cells, Lineweaver-Burk on OATP1B1

[5] = biological target: T4, CYP1A2 (Homo sapiens, UniProt P05177); experiment: LC-MS/MS, phenacetin O-de-ethylation (substrate cocktail); type: biochemical
T4 construct: native enzyme in ultrapooled human liver microsomes
T4 sequence (P05177 2-516): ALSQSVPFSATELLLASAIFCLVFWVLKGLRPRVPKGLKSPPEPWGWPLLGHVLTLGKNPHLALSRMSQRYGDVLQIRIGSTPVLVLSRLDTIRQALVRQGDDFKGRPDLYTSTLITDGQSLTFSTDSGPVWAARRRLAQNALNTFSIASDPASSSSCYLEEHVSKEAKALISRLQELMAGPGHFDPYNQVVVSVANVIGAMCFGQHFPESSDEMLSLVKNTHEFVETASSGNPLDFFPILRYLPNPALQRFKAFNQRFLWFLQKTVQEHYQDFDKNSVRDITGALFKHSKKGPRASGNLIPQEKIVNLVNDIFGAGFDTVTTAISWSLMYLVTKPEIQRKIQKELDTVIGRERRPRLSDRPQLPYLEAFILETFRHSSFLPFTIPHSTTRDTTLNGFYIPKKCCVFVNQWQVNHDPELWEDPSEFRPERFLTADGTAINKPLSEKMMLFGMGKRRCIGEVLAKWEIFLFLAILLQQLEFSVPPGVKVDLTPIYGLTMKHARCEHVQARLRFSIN
Source text: LC-MS/MS, phenacetin O-de-ethylation (substrate cocktail) on CYP1A2

[6] = biological target: T5, CYP2C9 (Homo sapiens, UniProt P11712); experiment: LC-MS/MS, diclofenac, Lineweaver-Burk/Dixon; type: biochemical
T5 construct: native enzyme in ultrapooled human liver microsomes
T5 sequence (P11712 whole entry): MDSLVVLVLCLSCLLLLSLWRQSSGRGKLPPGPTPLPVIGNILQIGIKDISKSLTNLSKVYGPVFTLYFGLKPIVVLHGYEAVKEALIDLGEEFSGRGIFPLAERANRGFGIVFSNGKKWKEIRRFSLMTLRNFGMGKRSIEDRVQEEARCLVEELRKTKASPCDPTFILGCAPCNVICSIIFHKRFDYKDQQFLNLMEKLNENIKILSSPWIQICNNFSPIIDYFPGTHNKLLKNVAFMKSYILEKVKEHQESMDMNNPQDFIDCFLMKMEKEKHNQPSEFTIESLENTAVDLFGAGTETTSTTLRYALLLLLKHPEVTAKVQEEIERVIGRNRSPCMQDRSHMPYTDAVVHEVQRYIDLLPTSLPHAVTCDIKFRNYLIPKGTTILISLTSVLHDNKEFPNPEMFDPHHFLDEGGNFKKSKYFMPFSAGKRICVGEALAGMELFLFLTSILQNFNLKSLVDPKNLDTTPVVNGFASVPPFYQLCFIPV

[7] = biological target: T6, CYP2C19 (Homo sapiens, UniProt P33261); experiment: LC-MS/MS, [S]-mephenytoin, Lineweaver-Burk/Dixon; type: biochemical
T6 construct: native enzyme in ultrapooled human liver microsomes
T6 sequence (P33261 whole entry): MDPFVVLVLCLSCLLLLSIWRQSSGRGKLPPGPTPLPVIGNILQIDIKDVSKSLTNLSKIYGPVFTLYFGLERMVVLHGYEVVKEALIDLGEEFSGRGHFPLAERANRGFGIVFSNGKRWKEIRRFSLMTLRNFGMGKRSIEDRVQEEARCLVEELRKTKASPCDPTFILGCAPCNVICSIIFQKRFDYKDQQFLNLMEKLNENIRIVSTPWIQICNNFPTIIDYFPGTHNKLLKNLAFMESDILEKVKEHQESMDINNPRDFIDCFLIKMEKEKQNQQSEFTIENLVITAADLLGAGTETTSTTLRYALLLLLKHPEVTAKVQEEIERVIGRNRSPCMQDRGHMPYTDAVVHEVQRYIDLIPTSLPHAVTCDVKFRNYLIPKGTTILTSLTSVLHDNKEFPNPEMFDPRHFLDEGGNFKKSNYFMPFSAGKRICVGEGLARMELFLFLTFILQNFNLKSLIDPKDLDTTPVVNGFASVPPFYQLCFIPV

[8] = biological target: T5, CYP2C9; experiment: LC-MS/MS, diclofenac (substrate cocktail); type: biochemical
[9] = biological target: T1, CYP2C8; experiment: LC-MS/MS, amodiaquine N-de-ethylation, Lineweaver-Burk/Dixon; type: biochemical
Source text: LC-MS/MS, amodiaquine N-de-ethylation, Lineweaver-Burk/Dixon on CYP2C8

[10] = biological target: T7, CYP2B6 (Homo sapiens, UniProt P20813); experiment: LC-MS/MS, bupropion hydroxylation; type: biochemical
T7 construct: native enzyme in ultrapooled human liver microsomes
T7 sequence (P20813 1-491): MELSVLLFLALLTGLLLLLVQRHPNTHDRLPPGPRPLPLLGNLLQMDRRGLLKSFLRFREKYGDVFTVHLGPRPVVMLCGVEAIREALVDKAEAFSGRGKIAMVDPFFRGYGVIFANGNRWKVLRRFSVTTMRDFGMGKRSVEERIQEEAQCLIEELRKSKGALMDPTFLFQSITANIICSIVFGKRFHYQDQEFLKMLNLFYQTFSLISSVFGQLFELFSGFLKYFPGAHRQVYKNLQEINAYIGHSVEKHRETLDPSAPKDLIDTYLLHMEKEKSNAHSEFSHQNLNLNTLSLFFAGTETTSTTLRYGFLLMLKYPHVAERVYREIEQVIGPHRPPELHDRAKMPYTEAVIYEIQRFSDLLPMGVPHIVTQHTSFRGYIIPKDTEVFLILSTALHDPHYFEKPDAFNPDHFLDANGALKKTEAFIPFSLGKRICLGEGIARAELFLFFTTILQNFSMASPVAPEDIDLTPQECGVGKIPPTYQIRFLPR
Source text: LC-MS/MS, bupropion hydroxylation on CYP2B6

[11] = biological target: T7, CYP2B6; experiment: LC-MS/MS, bupropion hydroxylation, Lineweaver-Burk/Dixon; type: biochemical
Source text: LC-MS/MS, bupropion hydroxylation, Lineweaver-Burk/Dixon on CYP2B6

[12] = biological target: T6, CYP2C19; experiment: LC-MS/MS, [S]-mephenytoin (substrate cocktail); type: biochemical
[13] = biological target: T3, CYP2D6; experiment: LC-MS/MS, bufuralol, Lineweaver-Burk/Dixon; type: biochemical

Compound: CC(C)[C@H](NC(=O)c1nn(Cc2ccc(F)cc2)c2ccccc12)C(N)=O [AB-FUBINACA, N-[(1S)-1-(aminocarbonyl)-2-methylpropyl]-1-[(4-fluorophenyl)methyl]-1H-indazole-3-carboxamide]
- IC50 [1]: 44.3 µM
- IC50 [2]: 85.6 µM
- IC50 [3]: 40.4 µM
- Ki [4]: 94.4 µM
- IC50 [5]: > 100 µM
- Ki [6]: 13.1 µM
- Ki [7]: 6.3 µM
- IC50 [8]: 13.5 µM
- Ki [9]: 19.9 µM
- IC50 [10]: 29.9 µM
- Ki [11]: 15 µM
- IC50 [12]: 19.7 µM
- Ki [13]: 20.8 µM
